# Source: patent US6355799B1, “Substituted benzene compounds, process for their preparation, and herbicidal and defoliant compositions containing them” (ISK Americas Incorporated, priority 1997, dated 2002)
# Experiments:
# Assay type in all cases: in vivo
# [1] = system: redroot pigweed (Amaranthus retroflexus, AMARE); assay: Pre-emerge test, greenhouse herbicide activity screening; settings: pre-emerge, phytotoxicity rating 0-100 at 14 days after application
# Summary of the method: (§1)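 Sandy loam pots; pre-emerge: sown 1 d pre-spray, surface-watered after, then bottom-watered. Post-emerge: sown 8–21 d before, 2–3 leaf stage, + 0.25% v/v NIS, bottom-watered. Acetone, 187 l/ha track spray, 15–1000 g ai/ha. 0–100 injury score, day 14.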
# [2] = system: barnyardgrass (Echinochloa crus-galli, ECHCG); assay: as above; settings: pre-emerge, phytotoxicity rating 0-100 at 14 days after application
# Summary of the method: (§2)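 Compounds in acetone were track-sprayed at 15-1000 g ai/ha (187 l/ha) on sandy loam pots: pre-emerge one day after seeding, post-emerge at 2-3 leaf stage with 0.25% v/v non-ionic surfactant. Phytotoxicity was rated 14 days later on a 0 (no damage) to 100 (complete death) scale.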
# [3] = system: green foxtail (Setaria viridis, SETVI); assay: as above; settings: pre-emerge, phytotoxicity rating 0-100 at 14 days after application
# Summary of the method: as §2
# [4] = system: ivyleaf morningglory (Ipomoea hederacea, IPOHE); assay: as above; settings: pre-emerge, phytotoxicity rating 0-100 at 14 days after application
# Summary of the method: as §2
# [5] = system: johnsongrass (Sorghum halepense, SORHA); assay: as above; settings: pre-emerge, phytotoxicity rating 0-100 at 14 days after application
# Summary of the method: as §2
# [6] = system: lambsquarters (Chenopodium album, CHEAL); assay: as above; settings: pre-emerge, phytotoxicity rating 0-100 at 14 days after application
# Summary of the method: as §2
# [7] = system: large crabgrass (Digitaria sanguinalis, DIGSA); assay: as above; settings: pre-emerge, phytotoxicity rating 0-100 at 14 days after application
# Summary of the method: as §2
# [8] = system: sicklepod (Cassia obtusifolia, CASOB); assay: as above; settings: pre-emerge, phytotoxicity rating 0-100 at 14 days after application
# Summary of the method: as §2
# [9] = system: velvetleaf (Abutilon theophrasti, ABUTH); assay: as above; settings: pre-emerge, phytotoxicity rating 0-100 at 14 days after application
# Summary of the method: as §2
# [10] = system: field corn (Zea mays L., var. Dekalb 535, CORN); assay: Pre-emerge test, crop safety; settings: crop damage, pre-emerge, phytotoxicity rating 0-100 at 14 days after application
# Summary of the method: as §1
# [11] = system: upland rice (Oryza sp., var. Tebonnet, RICE); assay: Pre-emerge test, crop safety; settings: crop damage, pre-emerge, phytotoxicity rating 0-100 at 14 days after application
# Summary of the method: as §1
# [12] = system: barnyardgrass (Echinochloa crus-galli, ECHCG); assay: Post-emerge test, greenhouse herbicide activity screening; settings: post-emerge, phytotoxicity rating 0-100 at 14 days after application
# Summary of the method: (§3)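 Fourteen days after spraying, crop and weed injury was graded visually from 0, no effect, to 100, every plant dead. Test substances were dissolved in acetone and applied at 15–1000 g ai/ha with a flat-fan nozzle. Application was either pre-emergence, one day after sowing, or post-emergence at the 2–3 leaf stage.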
# [13] = system: green foxtail (Setaria viridis, SETVI); assay: as above; settings: post-emerge, phytotoxicity rating 0-100 at 14 days after application
# Summary of the method: as §3
# [14] = system: ivyleaf morningglory (Ipomoea hederacea, IPOHE); assay: as above; settings: post-emerge, phytotoxicity rating 0-100 at 14 days after application
# Summary of the method: as §3
# [15] = system: johnsongrass (Sorghum halepense, SORHA); assay: as above; settings: post-emerge, phytotoxicity rating 0-100 at 14 days after application
# Summary of the method: as §3
# [16] = system: lambsquarters (Chenopodium album, CHEAL); assay: as above; settings: post-emerge, phytotoxicity rating 0-100 at 14 days after application
# Summary of the method: as §3
# [17] = system: large crabgrass (Digitaria sanguinalis, DIGSA); assay: as above; settings: post-emerge, phytotoxicity rating 0-100 at 14 days after application
# Summary of the method: as §3
# [18] = system: redroot pigweed (Amaranthus retroflexus, AMARE); assay: as above; settings: post-emerge, phytotoxicity rating 0-100 at 14 days after application
# Summary of the method: as §3
# [19] = system: sicklepod (Cassia obtusifolia, CASOB); assay: as above; settings: post-emerge, phytotoxicity rating 0-100 at 14 days after application
# Summary of the method: as §3
# [20] = system: velvetleaf (Abutilon theophrasti, ABUTH); assay: as above; settings: post-emerge, phytotoxicity rating 0-100 at 14 days after application
# Summary of the method: as §3
# [21] = system: field corn (Zea mays L., var. Dekalb 535, CORN); assay: Post-emerge test, crop safety; settings: post-emerge, crop damage rating 0-100 at 14 days after application
# Summary of the method: as §2
# [22] = system: upland rice (Oryza sp., var. Tebonnet, RICE); assay: Post-emerge test, crop safety; settings: post-emerge, crop damage rating 0-100 at 14 days after application
# Summary of the method: as §2
smiles,measurement,setting,value
COc1ccc(COC(=O)Nc2c(C)c(Cl)cc(F)c2-n2c(=O)cc(C(F)(F)F)n(C)c2=O)cc1OC [4-63],Pre-emerge Herbicidal Activity AMARE,[1]; rate 63 g ai/ha,100
same,Pre-emerge Herbicidal Activity AMARE,[1]; rate 250 g ai/ha,100
same,Pre-emerge Herbicidal Activity ECHCG,[2]; rate 63 g ai/ha,30
same,Pre-emerge Herbicidal Activity ECHCG,[2]; rate 250 g ai/ha,70
same,Pre-emerge Herbicidal Activity SETVI,[3]; rate 63 g ai/ha,70
same,Pre-emerge Herbicidal Activity SETVI,[3]; rate 250 g ai/ha,100
same,Pre-emerge Herbicidal Activity IPOHE,[4]; rate 63 g ai/ha,40
same,Pre-emerge Herbicidal Activity IPOHE,[4]; rate 250 g ai/ha,100
same,Pre-emerge Herbicidal Activity SORHA,[5]; rate 63 g ai/ha,30
same,Pre-emerge Herbicidal Activity SORHA,[5]; rate 250 g ai/ha,50
same,Pre-emerge Herbicidal Activity CHEAL,[6]; rate 63 g ai/ha,100
same,Pre-emerge Herbicidal Activity CHEAL,[6]; rate 250 g ai/ha,100
same,Pre-emerge Herbicidal Activity DIGSA,[7]; rate 63 g ai/ha,70
same,Pre-emerge Herbicidal Activity DIGSA,[7]; rate 250 g ai/ha,95
same,Pre-emerge Herbicidal Activity CASOB,[8]; rate 63 g ai/ha,40
same,Pre-emerge Herbicidal Activity CASOB,[8]; rate 250 g ai/ha,100
same,Pre-emerge Herbicidal Activity ABUTH,[9]; rate 63 g ai/ha,100
same,Pre-emerge Herbicidal Activity ABUTH,[9]; rate 250 g ai/ha,100
same,Pre-emerge Herbicidal Activity CORN,[10]; rate 63 g ai/ha,0
same,Pre-emerge Herbicidal Activity CORN,[10]; rate 250 g ai/ha,35
same,Pre-emerge Herbicidal Activity RICE,[11]; rate 63 g ai/ha,40
same,Pre-emerge Herbicidal Activity RICE,[11]; rate 250 g ai/ha,90
same,Post-emerge Herbicidal Activity ECHCG,[12]; 63 g ai/ha,0
same,Post-emerge Herbicidal Activity ECHCG,[12]; 250 g ai/ha,20
same,Post-emerge Herbicidal Activity SETVI,[13]; 63 g ai/ha,0
same,Post-emerge Herbicidal Activity SETVI,[13]; 250 g ai/ha,30
same,Post-emerge Herbicidal Activity IPOHE,[14]; 63 g ai/ha,100
same,Post-emerge Herbicidal Activity IPOHE,[14]; 250 g ai/ha,100
same,Post-emerge Herbicidal Activity SORHA,[15]; 63 g ai/ha,0
same,Post-emerge Herbicidal Activity SORHA,[15]; 250 g ai/ha,10
same,Post-emerge Herbicidal Activity CHEAL,[16]; 63 g ai/ha,80
same,Post-emerge Herbicidal Activity CHEAL,[16]; 250 g ai/ha,100
same,Post-emerge Herbicidal Activity DIGSA,[17]; 63 g ai/ha,0
same,Post-emerge Herbicidal Activity DIGSA,[17]; 250 g ai/ha,10
same,Post-emerge Herbicidal Activity AMARE,[18]; 63 g ai/ha,100
same,Post-emerge Herbicidal Activity AMARE,[18]; 250 g ai/ha,100
same,Post-emerge Herbicidal Activity CASOB,[19]; 63 g ai/ha,60
same,Post-emerge Herbicidal Activity CASOB,[19]; 250 g ai/ha,100
same,Post-emerge Herbicidal Activity ABUTH,[20]; 63 g ai/ha,100
same,Post-emerge Herbicidal Activity ABUTH,[20]; 250 g ai/ha,100
same,Post-emerge Herbicidal Activity CORN,[21]; 63 g ai/ha,10
same,Post-emerge Herbicidal Activity CORN,[21]; 250 g ai/ha,30
same,Post-emerge Herbicidal Activity RICE,[22]; 63 g ai/ha,10
same,Post-emerge Herbicidal Activity RICE,[22]; 250 g ai/ha,60
Cc1c(Cl)cc(F)c(-n2c(=O)cc(C(F)(F)F)n(C)c2=O)c1NC(=O)OCc1ccc([N+](=O)[O-])cc1 [4-64],Pre-emerge Herbicidal Activity AMARE,[1]; rate 63 g ai/ha,100
same,Pre-emerge Herbicidal Activity AMARE,[1]; rate 250 g ai/ha,100
same,Pre-emerge Herbicidal Activity ECHCG,[2]; rate 63 g ai/ha,30
same,Pre-emerge Herbicidal Activity ECHCG,[2]; rate 250 g ai/ha,70
same,Pre-emerge Herbicidal Activity SETVI,[3]; rate 63 g ai/ha,100
same,Pre-emerge Herbicidal Activity SETVI,[3]; rate 250 g ai/ha,100
same,Pre-emerge Herbicidal Activity IPOHE,[4]; rate 63 g ai/ha,40
same,Pre-emerge Herbicidal Activity IPOHE,[4]; rate 250 g ai/ha,70
same,Pre-emerge Herbicidal Activity SORHA,[5]; rate 63 g ai/ha,40
same,Pre-emerge Herbicidal Activity SORHA,[5]; rate 250 g ai/ha,80
same,Pre-emerge Herbicidal Activity CHEAL,[6]; rate 63 g ai/ha,100
same,Pre-emerge Herbicidal Activity CHEAL,[6]; rate 250 g ai/ha,100
same,Pre-emerge Herbicidal Activity DIGSA,[7]; rate 63 g ai/ha,100
same,Pre-emerge Herbicidal Activity DIGSA,[7]; rate 250 g ai/ha,100
same,Pre-emerge Herbicidal Activity CASOB,[8]; rate 63 g ai/ha,20
same,Pre-emerge Herbicidal Activity CASOB,[8]; rate 250 g ai/ha,90
same,Pre-emerge Herbicidal Activity ABUTH,[9]; rate 63 g ai/ha,100
same,Pre-emerge Herbicidal Activity ABUTH,[9]; rate 250 g ai/ha,100
same,Pre-emerge Herbicidal Activity CORN,[10]; rate 63 g ai/ha,0
same,Pre-emerge Herbicidal Activity CORN,[10]; rate 250 g ai/ha,45
same,Pre-emerge Herbicidal Activity RICE,[11]; rate 63 g ai/ha,30
same,Pre-emerge Herbicidal Activity RICE,[11]; rate 250 g ai/ha,80
same,Post-emerge Herbicidal Activity ECHCG,[12]; 63 g ai/ha,20
same,Post-emerge Herbicidal Activity ECHCG,[12]; 250 g ai/ha,30
same,Post-emerge Herbicidal Activity SETVI,[13]; 63 g ai/ha,50
same,Post-emerge Herbicidal Activity SETVI,[13]; 250 g ai/ha,80
same,Post-emerge Herbicidal Activity IPOHE,[14]; 63 g ai/ha,100
same,Post-emerge Herbicidal Activity IPOHE,[14]; 250 g ai/ha,100
same,Post-emerge Herbicidal Activity SORHA,[15]; 63 g ai/ha,10
same,Post-emerge Herbicidal Activity SORHA,[15]; 250 g ai/ha,30
same,Post-emerge Herbicidal Activity CHEAL,[16]; 63 g ai/ha,100
same,Post-emerge Herbicidal Activity CHEAL,[16]; 250 g ai/ha,100
same,Post-emerge Herbicidal Activity DIGSA,[17]; 63 g ai/ha,10
same,Post-emerge Herbicidal Activity DIGSA,[17]; 250 g ai/ha,30
same,Post-emerge Herbicidal Activity AMARE,[18]; 63 g ai/ha,100
same,Post-emerge Herbicidal Activity AMARE,[18]; 250 g ai/ha,100
same,Post-emerge Herbicidal Activity CASOB,[19]; 63 g ai/ha,60
same,Post-emerge Herbicidal Activity CASOB,[19]; 250 g ai/ha,100
same,Post-emerge Herbicidal Activity ABUTH,[20]; 63 g ai/ha,100
same,Post-emerge Herbicidal Activity ABUTH,[20]; 250 g ai/ha,100
same,Post-emerge Herbicidal Activity CORN,[21]; 63 g ai/ha,30
same,Post-emerge Herbicidal Activity CORN,[21]; 250 g ai/ha,40
same,Post-emerge Herbicidal Activity RICE,[22]; 63 g ai/ha,15
same,Post-emerge Herbicidal Activity RICE,[22]; 250 g ai/ha,50
